# Biological target: IMPDH human type II (Homo sapiens, UniProt P12268)
# Assay: IMPDH activity inhibition assay (spectrophotometric, NADH formation at 340 nm)
# Type: biochemical
# Settings: IMPDH human type II, 15 to 50 nM enzyme, 37° C., tight-binding fit (Henderson); read-out: Ki
# Description: We have measured the inhibition constants of each compound against IMPDH using an adaptation of the method first reported by […]. Moyed, and […]. Biol. Chem., 226, p. 339 (1957)]. We measured the inhibition constants of the compounds listed in Table III utilizing the following protocol: IMP dehydrogenase activity was assayed following an adaptation of the method first reported by […]. Moyed, H. S. and […]. Biol. Chem. 226, 339]. Enzyme activity was measured spectrophotometrically, by monitoring the increase in absorbance at 340 nm due to the formation of NADH (ε340 is 6220 M^-1 cm^-1). The reaction mixture contained 0.1 M Tris pH 8.0, 0.1 M KCl, 3 mM EDTA, 2 mM DTT, […] and enzyme (IMPDH human type II) at a concentration of 15 to 50 nM. This solution is incubated at 37° C. for 10 minutes. The reaction is started by adding NAD to a final concentration of 0.1 M and the initial rate is measured by following the linear increase in absorbance at 340 nm for 10 minutes. For reading in a standard spectrophotometer (path length 1 cm) the final volume in the cuvette is 1.0 ml. The assay has also been adapted to a 96 well microtiter plate format; in this case the concentrations of all the reagents remain the same and the final volume is decreased to 200 μl. For the analysis of inhibitors, the compound in question is dissolved in DMSO to a final concentration of 20 mM and added to the initial assay mixture for preincubation with the enzyme at a final volume of 2-5% (v/v). The reaction is started by the addition of NAD, and the initial rates measured as above. […] The designation “ND” is used where a given compound was not tested.
row,Ki,SMILES
1,51 to 1000 nM,Cc1cccc(NC(=O)Nc2ccc(-c3cnco3)c(C)c2)c1 [Compound 75]
2,1000 to 10000 nM,Cc1cccc(NC(=O)Nc2ccc(-c3ocnc3C)c(Cl)c2)c1 [Compound 76]
3,51 to 1000 nM,Cc1cccc(NC(=O)Nc2ccc(-c3ocnc3C)cc2)c1 [Compound 77]
4,51 to 1000 nM,O=C(Nc1cccc([N+](=O)[O-])c1)Nc1ccc(-c2cnco2)c(Cl)c1 [Compound 78]
5,51 to 1000 nM,Nc1cccc(NC(=O)Nc2ccc(-c3cnco3)c(Cl)c2)c1 [Compound 79]
6,1000 to 10000 nM,O=C(Nc1ccc(-c2cnco2)cc1)Nc1cccc(S(=O)(=O)NC2CCCCC2)c1 [Compound 80]
7,1000 to 10000 nM,CNS(=O)(=O)c1cccc(NC(=O)Nc2ccc(-c3cnco3)cc2)c1 [Compound 81]
8,1000 to 10000 nM,O=C(Nc1ccc(-c2cnco2)cc1)Nc1cccc(S(=O)(=O)Nc2ccccc2)c1 [Compound 82]
9,51 to 1000 nM,COc1cc(NC(=O)Nc2cccc(NC(=O)OCc3ccccc3)c2)ccc1-c1cnco1 [Compound 83]
10,51 to 1000 nM,COc1cc(NC(=O)Nc2cccc(NC(C)=O)c2)ccc1-c1cnco1 [Compound 84]
11,1000 to 10000 nM,Cc1ccc(NC(=O)Nc2ccc(-c3cnco3)c(Cl)c2)s1 [Compound 86]
12,1000 to 10000 nM,COC(=O)c1cc(NC(=O)Nc2cccc(C)c2)ccc1-c1cnco1 [Compound 88]
13,1000 to 10000 nM,COC(=O)c1cc(NC(=O)Nc2cccc([N+](=O)[O-])c2)ccc1-c1cnco1 [Compound 89]
14,1000 to 10000 nM,COc1ccc(NC(=O)Nc2cccc(C)c2)cc1CO [Compound 90]
15,0.01 to 50 nM,CN(C(=O)C(F)(F)F)c1cccc(NC(=O)Nc2ccc(-c3cnco3)c(Cl)c2)c1 [Compound 93]
16,51 to 1000 nM,CNc1cccc(NC(=O)Nc2ccc(-c3cnco3)c(Cl)c2)c1 [Compound 94]
17,51 to 1000 nM,COc1cc(NC(=O)Nc2cccc(NC(=O)C(F)(F)F)c2)ccc1-c1cnco1 [Compound 96]
18,0.01 to 50 nM,COc1cc(NC(=O)Nc2cccc(N(C)C(=O)C(F)(F)F)c2)ccc1-c1cnco1 [Compound 97]

row,Ki,SMILES
1,51 to 1000 nM,COc1cc(NC(=O)Nc2cccc(NC(=O)OCc3cccnc3)c2)ccc1-c1cnco1 [Compound 98]
2,0.01 to 50 nM,COc1cc(NC(=O)Nc2cccc(NC(=O)Oc3ccccc3)c2)ccc1-c1cnco1 [Compound 99]
3,51 to 1000 nM,COc1cc(NC(=O)Nc2cccc(NC(=O)C(F)F)c2)ccc1-c1cnco1 [Compound 100]
4,1000 to 10000 nM,CC(=O)OCc1cc(NC(=O)Nc2cccc(C)c2)ccc1-c1cnco1 [Compound 101]
5,1000 to 10000 nM,Cc1cccc(NC(=O)Nc2ccc(-c3cnco3)c(CO)c2)c1 [Compound 102]
6,1000 to 10000 nM,CC(C)(C)OC(=O)NCc1cccc(NC(=O)Nc2cccc(CNC(=O)OC(C)(C)C)c2)c1 [Compound 103]
7,1000 to 10000 nM,O=C(Nc1ccc(-c2cnco2)cc1)Nc1ccc(F)c([N+](=O)[O-])c1 [Compound 104]
8,51 to 1000 nM,COc1cc(NC(=O)Nc2cccc(CN)c2)ccc1-c1cnco1 [Compound 105]
9,51 to 1000 nM,COc1cc(NC(=O)Nc2ccc3c(c2)N(C(C)=O)CC3)ccc1-c1cnco1 [Compound 106]
10,0.01 to 50 nM,COc1cc(NC(=O)Nc2cccc(N(C)C(C)=O)c2)ccc1-c1cnco1 [Compound 107]
11,51 to 1000 nM,COc1cc(NC(=O)Nc2cccc(NC(=O)C(=O)c3cc(OC)c(OC)c(OC)c3)c2)ccc1-c1cnco1 [Compound 108]
12,51 to 1000 nM,Cc1cccc(NC(=O)Nc2ccc(-c3cnco3)c(N)c2)c1 [Compound 109]
13,51 to 1000 nM,COc1cc(NC(=O)Nc2cccc(NC(=O)c3ccccc3)c2)ccc1-c1cnco1 [Compound 110]
14,0.01 to 50 nM,COc1cc(NC(=O)Nc2cccc(NC(=O)Cc3ccccc3)c2)ccc1-c1cnco1 [Compound 111]
15,51 to 1000 nM,COc1cc(NC(=O)Nc2cccc(NC(=O)Nc3ccccc3)c2)ccc1-c1cnco1 [Compound 112]
16,0.01 to 50 nM,COc1cc(NC(=O)Nc2cccc(CNC(=O)OC(C)(C)C)c2)ccc1-c1cnco1 [Compound 113]
17,51 to 1000 nM,COc1cc(NC(=O)Nc2cccc(NC(=O)CC3CCCC3)c2)ccc1-c1cnco1 [Compound 114]

# From patent US7329681B2, “Inhibitors of IMPDH enzyme” (Vertex Pharmaceuticals Incorporated, priority 1996, dated 2008)
